Experimental findings from ChEMBL document CHEMBL1201862, “PubChem BioAssay data set” (2004) are described below.

The source made the active and inactive calls.

The target in assay [1] is Mucolipin-3 (Homo sapiens, UniProt Q8TDD5). In words: Dose response cell-based high-throughput screening assay for agonists of the transient receptor potential channel ML3 (TRPML3). [Related pubchem assays: 1526, 1424, 1448 ]. Type of assay: functional.
The target in assay [2] is Ion channel NompC (Danio rerio, UniProt Q7T1G6). Description: Fluorescence counterscreen assay for TRPML3 agonists: dose response cell-based high-throughput screening assay to identify agonists of the transient receptor potential channel N1 (TRPN1). [Related pubchem assays: 1526, 1424, 1448 ]. Type of assay: functional. (In general: A counterscreen serves to expose hits that act by an unwanted route or on another target.)
Ion channel NompC, sequence (Q7T1G6 whole entry): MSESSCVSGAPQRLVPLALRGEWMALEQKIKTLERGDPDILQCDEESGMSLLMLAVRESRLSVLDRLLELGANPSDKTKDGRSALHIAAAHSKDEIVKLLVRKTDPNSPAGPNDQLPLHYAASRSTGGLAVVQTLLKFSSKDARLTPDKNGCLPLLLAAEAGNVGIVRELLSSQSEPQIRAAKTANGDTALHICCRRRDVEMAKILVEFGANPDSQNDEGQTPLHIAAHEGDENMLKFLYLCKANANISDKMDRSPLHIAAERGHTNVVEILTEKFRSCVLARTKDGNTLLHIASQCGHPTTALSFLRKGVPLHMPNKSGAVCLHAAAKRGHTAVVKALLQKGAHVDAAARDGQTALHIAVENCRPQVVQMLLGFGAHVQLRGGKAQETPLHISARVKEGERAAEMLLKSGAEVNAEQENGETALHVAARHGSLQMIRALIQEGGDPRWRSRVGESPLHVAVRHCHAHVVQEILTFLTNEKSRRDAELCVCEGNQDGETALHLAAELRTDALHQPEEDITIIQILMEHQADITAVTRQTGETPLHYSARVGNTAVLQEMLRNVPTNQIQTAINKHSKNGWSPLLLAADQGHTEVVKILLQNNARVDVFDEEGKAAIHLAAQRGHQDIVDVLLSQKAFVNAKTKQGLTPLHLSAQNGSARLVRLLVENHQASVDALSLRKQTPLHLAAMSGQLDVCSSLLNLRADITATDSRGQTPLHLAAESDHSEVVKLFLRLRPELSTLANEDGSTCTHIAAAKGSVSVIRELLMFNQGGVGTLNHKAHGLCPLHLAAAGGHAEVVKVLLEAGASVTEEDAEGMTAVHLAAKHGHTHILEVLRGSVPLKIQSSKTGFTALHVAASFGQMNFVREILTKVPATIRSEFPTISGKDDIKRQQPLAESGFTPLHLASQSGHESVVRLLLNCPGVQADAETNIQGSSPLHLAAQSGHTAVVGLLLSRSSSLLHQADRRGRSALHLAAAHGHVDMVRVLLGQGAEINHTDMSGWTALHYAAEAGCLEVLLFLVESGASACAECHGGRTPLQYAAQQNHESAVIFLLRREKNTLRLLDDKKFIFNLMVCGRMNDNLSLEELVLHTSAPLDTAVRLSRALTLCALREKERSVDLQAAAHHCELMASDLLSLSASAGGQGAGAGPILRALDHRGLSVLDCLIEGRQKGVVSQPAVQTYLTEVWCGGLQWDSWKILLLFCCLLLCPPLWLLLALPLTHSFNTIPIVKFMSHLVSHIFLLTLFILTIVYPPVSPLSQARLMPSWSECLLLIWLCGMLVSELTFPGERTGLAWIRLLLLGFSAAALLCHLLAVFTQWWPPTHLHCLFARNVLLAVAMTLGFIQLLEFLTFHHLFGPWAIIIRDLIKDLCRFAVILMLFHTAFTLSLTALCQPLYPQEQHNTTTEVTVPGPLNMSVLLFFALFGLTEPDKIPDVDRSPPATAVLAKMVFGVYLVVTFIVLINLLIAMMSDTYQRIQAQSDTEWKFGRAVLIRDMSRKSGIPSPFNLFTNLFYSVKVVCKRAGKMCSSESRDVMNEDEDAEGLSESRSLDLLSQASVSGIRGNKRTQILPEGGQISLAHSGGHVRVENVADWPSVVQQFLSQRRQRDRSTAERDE

The target in assay [3] is T1, Corticotropin-releasing factor receptor 2/Corticotropin-releasing factor-binding protein (Homo sapiens, UniProt P24387+Q13324).
T1 sequence (Q13324 whole entry): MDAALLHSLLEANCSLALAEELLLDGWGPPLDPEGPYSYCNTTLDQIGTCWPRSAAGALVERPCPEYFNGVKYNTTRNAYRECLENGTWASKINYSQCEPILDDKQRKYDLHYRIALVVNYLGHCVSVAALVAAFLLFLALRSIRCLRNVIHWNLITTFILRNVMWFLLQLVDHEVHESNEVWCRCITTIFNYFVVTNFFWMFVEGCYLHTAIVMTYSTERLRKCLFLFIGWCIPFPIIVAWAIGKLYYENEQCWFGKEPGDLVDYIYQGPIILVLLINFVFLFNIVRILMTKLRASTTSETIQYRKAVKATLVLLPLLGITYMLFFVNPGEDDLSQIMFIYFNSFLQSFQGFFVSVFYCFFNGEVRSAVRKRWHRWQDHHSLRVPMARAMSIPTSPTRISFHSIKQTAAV
T1 sequence (P24387 whole entry): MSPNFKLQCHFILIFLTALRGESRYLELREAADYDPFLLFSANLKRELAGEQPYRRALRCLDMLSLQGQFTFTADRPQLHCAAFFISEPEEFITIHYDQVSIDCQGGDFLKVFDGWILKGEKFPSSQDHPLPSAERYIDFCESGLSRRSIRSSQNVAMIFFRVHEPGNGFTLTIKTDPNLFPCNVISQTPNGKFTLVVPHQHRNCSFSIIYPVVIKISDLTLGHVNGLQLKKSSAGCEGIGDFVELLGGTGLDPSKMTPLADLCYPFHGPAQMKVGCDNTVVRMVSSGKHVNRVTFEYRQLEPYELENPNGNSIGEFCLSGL
In words: Dose Response confirmation of uHTS hits for small molecule antagonists of the CRF-binding protein and CRF-R2 receptor complex. The settings on record: read-out: IC50_Mean. Type of assay: functional.

Assay [4] concerns the target T1, Corticotropin-releasing factor receptor 2/Corticotropin-releasing factor-binding protein. Description: activators of CRF receptor 2 with binding protein – uHTS hits, confirmation (AID 602473). It counts as functional. The settings on record: read-out: EC50_Mean.
Assay [5] is described as follows: blockers of CRF-binding protein–CRF-R2 complex – cell-based, uHTS hits, 384-well, dose response (AID 651639). The settings on record: read-out: IC50_Mean. Type of assay: functional, Homo sapiens.
The nature of assay [6]: CCR5-tropic HIV-1 fusion blockers – cell-based, CCR5-tropic Env, dose response (AID 2279). It counts as functional.
Assay [7] deals with Genome polyprotein (dengue virus type 2, UniProt P29990). In words: flavivirus cap methylation enzyme inhibition – biochemical, confirmation dose response, primary screen (AID 588689). Type of assay: functional.
Genome polyprotein, sequence (P29990 2492-3391 limits assumed): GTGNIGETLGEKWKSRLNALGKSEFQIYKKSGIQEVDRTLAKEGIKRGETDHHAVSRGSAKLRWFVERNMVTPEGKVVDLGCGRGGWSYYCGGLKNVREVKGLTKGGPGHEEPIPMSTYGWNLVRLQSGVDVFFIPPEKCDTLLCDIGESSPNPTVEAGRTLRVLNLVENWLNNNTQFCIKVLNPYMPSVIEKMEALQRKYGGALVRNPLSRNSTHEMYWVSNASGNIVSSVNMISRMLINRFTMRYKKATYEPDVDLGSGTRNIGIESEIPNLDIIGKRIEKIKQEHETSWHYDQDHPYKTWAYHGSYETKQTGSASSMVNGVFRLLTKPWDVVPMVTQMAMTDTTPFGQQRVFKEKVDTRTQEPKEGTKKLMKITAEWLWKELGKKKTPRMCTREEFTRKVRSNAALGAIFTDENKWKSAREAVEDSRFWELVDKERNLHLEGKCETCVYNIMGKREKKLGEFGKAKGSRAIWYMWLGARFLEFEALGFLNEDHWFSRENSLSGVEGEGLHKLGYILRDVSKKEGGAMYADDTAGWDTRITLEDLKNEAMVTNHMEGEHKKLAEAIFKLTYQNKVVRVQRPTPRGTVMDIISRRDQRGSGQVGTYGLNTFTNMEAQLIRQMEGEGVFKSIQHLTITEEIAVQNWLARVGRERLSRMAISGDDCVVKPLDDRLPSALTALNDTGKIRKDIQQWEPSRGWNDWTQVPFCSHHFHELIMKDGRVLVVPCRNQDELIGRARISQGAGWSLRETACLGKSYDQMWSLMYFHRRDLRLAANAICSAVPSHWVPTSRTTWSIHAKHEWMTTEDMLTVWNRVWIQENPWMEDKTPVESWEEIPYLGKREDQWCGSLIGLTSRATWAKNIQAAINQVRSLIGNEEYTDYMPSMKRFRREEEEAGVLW
A short description of assay [8]: antiviral protection against BTV-induced cell death – arbovirus, BSR cells, confirmation (AID 1250).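 Further: protection from viral cytopathic effect measured as cell viability by ATP luminescence.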 It counts as functional.
Assay [9] can be described thus: Counterscreen for IDE inhibitors: Luminescence-based cell-based high throughput dose response assay to identify compounds that are cytotoxic to HEK cells. [Related pubchem assays: 434962 (Primary screen (IDE inhibitors in singlicate)), 449730 (Counterscreen (Cytotoxicity in triplicate)), 435028 (Confirmation (IDE inhibitors in triplicate)) …. Type of assay: functional. The settings on record: HEK293.

Assay [10] concerns the target T2, Insulin-degrading enzyme (Homo sapiens, UniProt P14735).
T2 sequence (P14735 whole entry): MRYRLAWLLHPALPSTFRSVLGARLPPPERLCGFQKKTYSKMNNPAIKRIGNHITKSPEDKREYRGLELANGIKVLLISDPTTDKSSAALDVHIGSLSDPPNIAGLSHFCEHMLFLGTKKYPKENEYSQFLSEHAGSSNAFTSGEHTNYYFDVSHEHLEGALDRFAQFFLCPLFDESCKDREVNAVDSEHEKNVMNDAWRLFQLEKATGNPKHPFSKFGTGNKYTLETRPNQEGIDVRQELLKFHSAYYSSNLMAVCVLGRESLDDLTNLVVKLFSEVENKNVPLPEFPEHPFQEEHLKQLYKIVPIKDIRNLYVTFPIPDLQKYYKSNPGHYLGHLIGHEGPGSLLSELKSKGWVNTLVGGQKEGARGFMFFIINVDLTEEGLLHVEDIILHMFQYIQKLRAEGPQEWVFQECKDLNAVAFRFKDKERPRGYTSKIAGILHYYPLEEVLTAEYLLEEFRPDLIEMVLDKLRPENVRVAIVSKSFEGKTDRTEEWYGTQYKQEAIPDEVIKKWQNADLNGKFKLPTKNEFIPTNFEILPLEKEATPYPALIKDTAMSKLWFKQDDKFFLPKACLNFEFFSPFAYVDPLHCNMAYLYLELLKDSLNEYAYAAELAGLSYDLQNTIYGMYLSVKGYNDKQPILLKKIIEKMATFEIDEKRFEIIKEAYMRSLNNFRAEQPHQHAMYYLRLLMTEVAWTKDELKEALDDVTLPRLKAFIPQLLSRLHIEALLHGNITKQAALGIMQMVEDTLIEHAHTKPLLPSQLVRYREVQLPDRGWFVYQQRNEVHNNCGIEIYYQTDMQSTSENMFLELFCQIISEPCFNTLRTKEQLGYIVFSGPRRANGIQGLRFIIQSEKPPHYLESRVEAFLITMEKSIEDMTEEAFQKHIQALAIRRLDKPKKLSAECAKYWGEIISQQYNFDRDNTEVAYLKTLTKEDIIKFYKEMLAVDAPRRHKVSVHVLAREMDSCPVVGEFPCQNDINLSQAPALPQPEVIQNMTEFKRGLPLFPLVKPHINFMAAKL
Description: Dose Response: Fluorescence polarization-based cell-based high throughput dose response assay for inhibitors of insulin-degrading enzyme (IDE). [Related pubchem assays: 434962 (Primary screen (IDE inhibitors in singlicate)), 449730 (Counterscreen (Cytotoxicity in triplicate)), 435028 (Confirmation (IDE inhibitors in triplicate)), 434984 (Summary …. Type of assay: functional.

Assay [11] concerns the target T3, Sentrin-specific protease 1 (Homo sapiens, UniProt Q9P0U3).
T3 sequence (Q9P0U3 whole entry): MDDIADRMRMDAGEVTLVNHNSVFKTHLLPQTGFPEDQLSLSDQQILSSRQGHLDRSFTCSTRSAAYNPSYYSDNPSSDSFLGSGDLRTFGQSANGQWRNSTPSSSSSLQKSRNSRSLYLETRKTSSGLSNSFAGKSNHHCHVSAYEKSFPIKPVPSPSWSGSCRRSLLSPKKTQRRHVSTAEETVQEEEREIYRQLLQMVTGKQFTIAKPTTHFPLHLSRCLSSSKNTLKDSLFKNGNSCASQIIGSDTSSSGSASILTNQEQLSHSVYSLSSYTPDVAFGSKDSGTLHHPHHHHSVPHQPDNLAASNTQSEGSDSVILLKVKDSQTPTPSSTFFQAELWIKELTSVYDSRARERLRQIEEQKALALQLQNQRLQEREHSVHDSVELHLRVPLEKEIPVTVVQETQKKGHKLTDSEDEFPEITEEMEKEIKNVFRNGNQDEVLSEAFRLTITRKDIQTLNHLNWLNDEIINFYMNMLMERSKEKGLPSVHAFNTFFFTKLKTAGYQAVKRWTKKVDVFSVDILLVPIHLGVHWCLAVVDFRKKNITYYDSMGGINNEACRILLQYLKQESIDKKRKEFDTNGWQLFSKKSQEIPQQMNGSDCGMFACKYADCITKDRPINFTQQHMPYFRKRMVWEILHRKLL
Description: SENP1 catalytic domain blockers, concentration series – biochemical, kinetic FRET, dose response (AID 651697). It counts as functional. The following applies: read-out: IC50_Mean.

Assay [12] deals with T3, Sentrin-specific protease 1. Description: Dose response confirmation of small molecule inhibitors of the catalytic domain of the SUMO protease, SENP1 in a FRET assay. It counts as functional. The settings on record: read-out: IC50_Mean.
The target of assay [13] is Neuropeptide Y receptor type 1 (Homo sapiens, UniProt P25929). It counts as functional.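 Further: HEK293 cells with a CNG channel challenged with NPY then isoproterenol; potency as antagonist that reverses NPY suppression of cAMP signal.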
Neuropeptide Y receptor type 1, sequence (P25929 whole entry): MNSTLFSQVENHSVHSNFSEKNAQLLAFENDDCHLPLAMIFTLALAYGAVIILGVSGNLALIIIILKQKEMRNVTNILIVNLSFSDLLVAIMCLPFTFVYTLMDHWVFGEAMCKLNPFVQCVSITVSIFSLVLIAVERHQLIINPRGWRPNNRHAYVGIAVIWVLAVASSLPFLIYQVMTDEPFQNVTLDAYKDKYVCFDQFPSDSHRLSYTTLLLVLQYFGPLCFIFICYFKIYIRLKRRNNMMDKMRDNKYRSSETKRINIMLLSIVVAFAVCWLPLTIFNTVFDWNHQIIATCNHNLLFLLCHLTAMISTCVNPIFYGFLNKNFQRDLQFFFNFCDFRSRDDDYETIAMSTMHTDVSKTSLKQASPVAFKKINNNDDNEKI
Assay [14] concerns the target Neuropeptide Y receptor type 2 (Homo sapiens, UniProt P49146). It counts as functional, cell-based.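 Further: HEK293 cells expressing the receptor and a CNG channel; stimulus was NPY near EC95 followed by isoproterenol to raise cAMP; antagonist potency measured as restoring cAMP signal that NPY suppresses.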
Assay [15] deals with T4, Protein skinhead-1 (Caenorhabditis elegans, UniProt P34707).
T4 sequence (P34707 whole entry): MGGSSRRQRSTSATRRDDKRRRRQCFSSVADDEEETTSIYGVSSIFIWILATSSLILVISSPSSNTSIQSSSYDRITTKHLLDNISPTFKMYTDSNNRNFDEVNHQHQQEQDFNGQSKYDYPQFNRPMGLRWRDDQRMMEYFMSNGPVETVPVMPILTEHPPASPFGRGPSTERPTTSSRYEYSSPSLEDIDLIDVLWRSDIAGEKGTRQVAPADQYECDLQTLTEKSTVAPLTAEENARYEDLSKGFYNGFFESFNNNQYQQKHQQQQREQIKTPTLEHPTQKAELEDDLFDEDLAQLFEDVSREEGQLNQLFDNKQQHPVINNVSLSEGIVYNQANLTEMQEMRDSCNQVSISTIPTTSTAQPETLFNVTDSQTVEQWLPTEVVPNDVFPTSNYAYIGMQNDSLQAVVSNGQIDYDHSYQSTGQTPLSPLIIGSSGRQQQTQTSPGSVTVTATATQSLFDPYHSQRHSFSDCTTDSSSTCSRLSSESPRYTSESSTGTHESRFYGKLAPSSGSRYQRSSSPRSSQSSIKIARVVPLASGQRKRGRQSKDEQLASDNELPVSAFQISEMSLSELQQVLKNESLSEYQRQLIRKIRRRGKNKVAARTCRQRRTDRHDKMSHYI
It counts as functional.

Assay [16] deals with T5, Tyrosine-protein phosphatase non-receptor type 7 (Homo sapiens, UniProt P35236).
T5 sequence (P35236 whole entry): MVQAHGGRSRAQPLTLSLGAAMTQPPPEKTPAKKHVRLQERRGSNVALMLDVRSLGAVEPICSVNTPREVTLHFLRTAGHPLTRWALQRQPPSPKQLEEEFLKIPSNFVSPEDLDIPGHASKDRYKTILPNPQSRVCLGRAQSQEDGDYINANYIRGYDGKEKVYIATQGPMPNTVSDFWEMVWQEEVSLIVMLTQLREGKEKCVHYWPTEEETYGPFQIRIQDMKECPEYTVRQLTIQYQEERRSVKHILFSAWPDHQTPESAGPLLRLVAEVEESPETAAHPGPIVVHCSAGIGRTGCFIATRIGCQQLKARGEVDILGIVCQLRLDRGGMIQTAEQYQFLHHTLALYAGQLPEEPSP
It counts as functional.

Assay [17] deals with Glyceraldehyde-3-phosphate dehydrogenase (Homo sapiens, UniProt P04406).
Glyceraldehyde-3-phosphate dehydrogenase, sequence (P04406 whole entry): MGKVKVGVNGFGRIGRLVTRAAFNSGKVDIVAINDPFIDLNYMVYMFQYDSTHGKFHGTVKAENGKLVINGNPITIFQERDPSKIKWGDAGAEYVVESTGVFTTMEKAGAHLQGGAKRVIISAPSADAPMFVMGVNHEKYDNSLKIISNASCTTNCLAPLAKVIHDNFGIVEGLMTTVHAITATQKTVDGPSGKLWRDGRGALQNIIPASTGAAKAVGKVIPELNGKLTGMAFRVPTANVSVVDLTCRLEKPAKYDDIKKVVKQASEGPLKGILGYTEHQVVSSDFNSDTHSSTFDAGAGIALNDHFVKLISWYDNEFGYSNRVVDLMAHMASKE
Assay [18] has as its target Heat shock cognate 71 kDa protein (Homo sapiens, UniProt P11142). Description: In Vitro Hsc70 Dose Response Fluorescence Polarization Assay. [Related pubchem assays: 1072 ]. In general terms: Fluorescence polarisation rises when a labelled molecule tumbles more slowly, as on binding a larger partner.
Assay [19] concerns the target Heat shock 70 kDa protein 1A (Homo sapiens, UniProt P0DMV8). Description: inhibition of Hsp70 binding activity – biochemical, fluorescence polarization, SAR follow-up (AID 1072).
Assay [20] has as its target T6, Dual specificity protein phosphatase 6 (Rattus norvegicus, UniProt Q64346).
T6 sequence (Q64346 whole entry): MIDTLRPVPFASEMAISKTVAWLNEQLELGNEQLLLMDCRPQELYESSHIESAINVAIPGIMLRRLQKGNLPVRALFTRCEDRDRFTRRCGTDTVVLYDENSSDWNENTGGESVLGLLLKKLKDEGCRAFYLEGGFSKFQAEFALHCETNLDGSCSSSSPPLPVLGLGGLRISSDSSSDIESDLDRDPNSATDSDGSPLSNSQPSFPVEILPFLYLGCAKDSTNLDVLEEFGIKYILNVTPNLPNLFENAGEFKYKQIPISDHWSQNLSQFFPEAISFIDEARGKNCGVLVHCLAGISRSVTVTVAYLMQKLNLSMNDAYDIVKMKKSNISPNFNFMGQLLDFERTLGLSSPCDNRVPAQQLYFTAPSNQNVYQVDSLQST

Assay [21] deals with T6, Dual specificity protein phosphatase 6. It counts as functional.

Heat shock cognate 71 kDa protein, sequence (P11142 whole entry): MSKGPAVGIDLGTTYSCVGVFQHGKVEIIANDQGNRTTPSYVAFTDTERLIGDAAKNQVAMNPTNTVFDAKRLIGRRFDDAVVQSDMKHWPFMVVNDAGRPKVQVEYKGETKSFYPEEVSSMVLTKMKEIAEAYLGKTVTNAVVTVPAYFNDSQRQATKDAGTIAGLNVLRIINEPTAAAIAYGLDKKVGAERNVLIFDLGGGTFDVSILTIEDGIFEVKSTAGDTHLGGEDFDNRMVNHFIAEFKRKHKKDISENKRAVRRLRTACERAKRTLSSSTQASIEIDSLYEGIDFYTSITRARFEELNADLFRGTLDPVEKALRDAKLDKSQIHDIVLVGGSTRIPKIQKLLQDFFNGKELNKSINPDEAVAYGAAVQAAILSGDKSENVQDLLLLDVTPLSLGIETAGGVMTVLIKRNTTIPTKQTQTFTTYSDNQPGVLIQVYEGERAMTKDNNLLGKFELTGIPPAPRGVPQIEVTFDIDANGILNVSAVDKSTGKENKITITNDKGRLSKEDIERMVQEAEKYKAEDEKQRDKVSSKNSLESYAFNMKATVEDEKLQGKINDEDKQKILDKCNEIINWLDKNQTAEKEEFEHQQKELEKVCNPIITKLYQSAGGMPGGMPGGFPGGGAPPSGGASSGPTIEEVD
Mucolipin-3, sequence (Q8TDD5 whole entry): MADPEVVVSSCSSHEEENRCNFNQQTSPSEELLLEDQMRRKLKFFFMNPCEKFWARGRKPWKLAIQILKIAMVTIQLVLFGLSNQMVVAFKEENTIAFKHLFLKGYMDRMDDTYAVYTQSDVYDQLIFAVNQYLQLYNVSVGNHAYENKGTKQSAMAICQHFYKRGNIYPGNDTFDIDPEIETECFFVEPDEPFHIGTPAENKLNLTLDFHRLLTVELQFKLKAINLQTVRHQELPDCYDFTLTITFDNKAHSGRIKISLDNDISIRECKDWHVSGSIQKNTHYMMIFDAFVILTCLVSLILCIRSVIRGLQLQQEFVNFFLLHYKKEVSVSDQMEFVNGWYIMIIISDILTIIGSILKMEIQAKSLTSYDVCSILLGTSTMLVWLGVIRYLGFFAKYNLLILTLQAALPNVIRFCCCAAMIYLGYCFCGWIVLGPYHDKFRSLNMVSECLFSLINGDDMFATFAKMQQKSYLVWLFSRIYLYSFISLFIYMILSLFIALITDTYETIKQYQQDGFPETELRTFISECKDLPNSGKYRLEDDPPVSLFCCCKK
Heat shock 70 kDa protein 1A, sequence (P0DMV8 whole entry): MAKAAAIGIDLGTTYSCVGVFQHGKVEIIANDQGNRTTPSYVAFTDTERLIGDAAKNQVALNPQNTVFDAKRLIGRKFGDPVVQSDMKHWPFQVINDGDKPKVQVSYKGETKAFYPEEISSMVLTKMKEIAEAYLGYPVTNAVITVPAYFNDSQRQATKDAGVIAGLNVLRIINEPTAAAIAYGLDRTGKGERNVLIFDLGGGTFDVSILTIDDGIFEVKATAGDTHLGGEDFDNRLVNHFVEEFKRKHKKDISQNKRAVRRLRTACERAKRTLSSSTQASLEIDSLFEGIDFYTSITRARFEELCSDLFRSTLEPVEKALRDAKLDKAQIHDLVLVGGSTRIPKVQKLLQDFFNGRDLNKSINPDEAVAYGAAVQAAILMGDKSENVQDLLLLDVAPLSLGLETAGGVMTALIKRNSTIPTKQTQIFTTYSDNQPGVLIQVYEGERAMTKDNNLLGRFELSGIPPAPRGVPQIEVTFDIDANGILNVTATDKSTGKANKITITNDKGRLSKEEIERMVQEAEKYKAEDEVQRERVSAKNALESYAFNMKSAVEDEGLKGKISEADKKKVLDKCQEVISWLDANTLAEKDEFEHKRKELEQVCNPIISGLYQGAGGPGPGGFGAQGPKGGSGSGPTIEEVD

In the case of `Cc1ccc(S(=O)(=O)N2CCCCCC2)cc1[N+](=O)[O-]`, the values for the EC50 in assay [1], in assay [2] and in [4] were 5.29 µM (active), > 29.9 µM (not active) and > 53 µM (inactive), respectively. Further, the figures for the IC50 in assay [3] and in assay [5] were 18.3 µM (active) and > 20 µM (inactive), respectively.

Regarding `CCCOc1cccc(C2C(C(=O)c3cc4ccccc4o3)=C(O)C(=O)N2c2cc(C)on2)c1` (stereo unspecified), the results for the IC50 in assay [6] and in assay [7] were 44.5 µM (active) and 32.6 µM (active), respectively.

On to `Cc1ccc(C)c(S(=O)(=O)N2CCN(C(C)C(=O)Nc3ccccc3-c3ccccc3)CC2)c1` (stereo unspecified), for which the IC50 in assay [8] was 44.1 µM (active).

Take `CCN(CC)C(=O)Cn1cc(C(=O)C(=O)N2CC=C(c3ccccc3)CC2)c2ccccc21`: the IC50 was 24.4 µM (not active) in assay [9], 35.1 µM (not active) in [10], 20.4 µM (inactive) in assay [11] and 7.95 µM (active) in [12].

In the case of `c1ccc(-c2nc(CSc3nnc(-c4cccs4)o3)cs2)cc1`, the IC50 was 12.8 µM (not active) in assay [13], 17.3 µM (not active) in [14] and > 100 µM (inactive) in [15].

With `CCOC(=O)c1ccccc1OC(=O)c1ccc2c(c1)C1C=CCC1C(C(=O)O)N2` (stereo unspecified), the IC50 in assay [16] was 3.3 µM (active); in assay [17], > 100 µM (not active); in [18], 112 µM (active); in assay [19], 35.1 µM (active); in assay [20], 14.1 µM (active); in assay [21] it was 6.01 µM (active).
